For series [1], the system named is overactive bladder. The settings on record: OAB patients; cited from earlier work.
For series [2], the target named is T1, NK1 receptors (Homo sapiens, UniProt P25103).
T1 construct: from tissue; host or cells: unnamed tissue preparation selective for NK1 receptors
As to the kind of experiment: Inhibition of binding of a tritiated derivative of SP in a tissue preparation selective for NK1 receptors. The settings on record: read-out: concentration at which 50% inhibition of binding of SP was achieved. The text has this: The specificity of inhibition by the Compound was shown by inhibiting the binding of tritiated NKA at the NK2 receptor compared to inhibition of binding of a tritiated derivative of SP in a tissue preparation selective for NK1 receptors.

Series [3] deals with T2, NK2 receptor, human bronchus (Homo sapiens, UniProt P21452).
T2 construct: from tissue; host or cells: human bronchus
T2 sequence (P21452 1-398): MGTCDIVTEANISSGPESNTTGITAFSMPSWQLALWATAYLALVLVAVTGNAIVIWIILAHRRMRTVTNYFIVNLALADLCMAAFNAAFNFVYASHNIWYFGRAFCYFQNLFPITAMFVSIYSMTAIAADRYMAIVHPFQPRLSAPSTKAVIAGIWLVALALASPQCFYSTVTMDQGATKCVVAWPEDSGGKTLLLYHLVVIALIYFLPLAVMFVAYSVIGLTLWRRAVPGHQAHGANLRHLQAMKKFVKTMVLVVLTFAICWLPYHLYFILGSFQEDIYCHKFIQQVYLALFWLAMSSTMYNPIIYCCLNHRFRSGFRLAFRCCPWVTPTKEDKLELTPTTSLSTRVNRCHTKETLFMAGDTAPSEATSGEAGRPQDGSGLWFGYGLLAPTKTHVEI
As to the kind of experiment: NK2 receptor antagonism in human bronchus. The settings on record: read-out: -log molar KB (converted).

Series [4] addresses T3, NK2 receptor of rabbit pulmonary artery (Oryctolagus cuniculus, UniProt P79218).
T3 construct: The left and right branches of the pulmonary artery were obtained from each animal; from tissue; host or cells: rabbit pulmonary artery rings, endothelium removed
T3 sequence (P79218 1-384): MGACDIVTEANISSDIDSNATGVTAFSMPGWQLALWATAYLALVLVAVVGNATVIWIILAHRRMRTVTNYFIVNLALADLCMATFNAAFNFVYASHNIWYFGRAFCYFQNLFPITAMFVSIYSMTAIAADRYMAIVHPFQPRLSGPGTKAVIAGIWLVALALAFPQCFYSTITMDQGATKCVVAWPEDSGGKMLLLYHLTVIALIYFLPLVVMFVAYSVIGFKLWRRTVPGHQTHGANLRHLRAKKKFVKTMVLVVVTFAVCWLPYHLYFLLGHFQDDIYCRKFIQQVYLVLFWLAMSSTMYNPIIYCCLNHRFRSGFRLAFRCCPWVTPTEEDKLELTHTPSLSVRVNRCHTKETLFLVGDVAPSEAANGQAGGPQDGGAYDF
The experiment in a line: Inhibition of NK2 receptor-mediated contraction of rabbit pulmonary artery (agonist BANK). To be noted: endothelium removed, read-out: -log molar KB (converted). The method, then:
Inhibition of NK2 Receptor-Mediated Contraction of Rabbit Pulmonary Artery:
Male New Zealand white rabbits were administered a lethal injection of Nembutal, (60 mg/kg) into a cannulated ear vein. Heparin, 0.0025 mL/kg of a 1000 U/ml solution, was injected into the ear vein prior to Nembutal in order to decrease blood coagulation. The left and right branches of the pulmonary artery were obtained from each animal. The segments, with or without endothelium, were suspended as rings in water-jacketed tissue baths maintained at 37° C. containing physiological salt solution of the following composition (mM): NaCl (119.0); KCl (4.6); CaCl2 (1.8); MgCl2 (0.5); NaH2PO4 (1.0); NaHCO3 (25.0); glucose (11.0); and gassed continuously with 95% O2-5% CO2. […] Changes in tension were measured on a Grass polygraph via Grass FT-03 force transducers.
(§1) To study NK2-mediated contraction, the vascular endothelium was removed and beta-Ala^8-NKA (“BANK”) was used as agonist. […] The response to each concentration of ASMSP was expressed as a percentage of the total relaxation induced by papaverine. […] Apparent KB values for the compound were calculated using the standard equation: KB=[antagonist]/(dose ratio−1), where dose ratio was equal to antilog [(−log molar EC50 without antagonist)−(−log molar EC50 with antagonist)]. The resulting KB values are expressed as −log molar KB.

Series [5] concerns the target T4, human NK2 receptor (Homo sapiens, UniProt P21452).
T4 construct: expressed in transfected cells; host or cells: Mouse Erythroleukemia (MEL) cells, membrane preparation (MELM)
T4 sequence (P21452 1-398): T2 sequence (P21452 1-398)
As to the kind of experiment: Neurokinin receptor binding assay, 3H-NKA binding to MEL cell membranes. To be noted: tritiated NKA; read-out: Ki, concentration at which 50% inhibition of binding of NKA was achieved.

Series [6] deals with BANK-induced bladder contraction. The experiment in a line: In vivo bladder contraction inhibition in rats (BANK-induced). More on the design: species or system rat.
The nature of series [7]: Side-effects in laboratory test animals. To be noted: several multiples of the minimum effective dose. The class given is in vivo.
Series [8] relates to NK1 receptor. The experiment in a line: NK1 receptor-mediated relaxation of rabbit pulmonary artery induced by ASMSP. The method, then: Male New Zealand white rabbits were administered a lethal injection of Nembutal, (60 mg/kg) into a cannulated ear vein. Heparin, 0.0025 mL/kg of a 1000 U/ml solution, was injected into the ear vein prior to Nembutal in order to decrease blood coagulation. The left and right branches of the pulmonary artery were obtained from each animal. The segments, with or without endothelium, were suspended as rings in water-jacketed tissue baths maintained at 37° C. containing physiological salt solution of the following composition (mM): NaCl (119.0); KCl (4.6); CaCl2 (1.8); MgCl2 (0.5); NaH2PO4 (1.0); NaHCO3 (25.0); glucose (11.0); and gassed continuously with 95% O2-5% CO2. Initial tension placed on each tissue was 2 gm, which was maintained throughout a 0.5 hour equilibration period. Changes in tension were measured on a Grass polygraph via Grass FT-03 force transducers.
as §1

Series [9] relates to BANK-induced dyspnea. As to the kind of experiment: BANK-induced dyspnea in conscious guinea pigs. It is filed as in vivo, guinea pig. To be noted: for ED50: Cavia porcellus. The method, then:
Dyspnea (labored abdominal breathing) was induced in conscious guinea pigs by aerosol administration of BANK, as previously described (Kusner, et al. Euro. J. Pharmacol. 210:299-306,1992). All animals were pretreated with atropine, 10 mg/kg ip 45 minutes; indomethacin, 10 mg/kg ip 30 minutes; propranolol, 5 mg/kg ip 30 minutes; and thiorphan, 1 mg/ml aerosol for 5 minutes duration, starting 15 minutes prior to challenge in order to block muscarinic receptors, cyclooxygenase, beta-adrenergic receptors, and neutral endopeptidase (EC 3.4.24.11), respectively. Animals were pretreated with Compound or vehicle at appropriate times before challenge with aerosolized BANK for 780 seconds. BANK was administered to six animals simultaneously by being aerosolized with a DeVilbiss ultrasonic nebulizer into an air stream flowing into a Plexiglas chamber at a rate of 2 liter/min. The time required for dyspnea to occur was recorded for each animal. […] Vehicle pretreated control animals were included in each experiment. Results are reported in % protection values where: [formula]

For series [10], the system named is BANK-induced bronchoconstriction. As to the kind of experiment: Pulmonary mechanics in anesthetized guinea pigs, BANK-induced bronchoconstriction. It is filed as in vivo, guinea pig.

The source of these data is patent US20030139433A1, “Method for the treatment of overactive bladder” (priority 2000, published 2003).

“And” between values parts separate entries of the source, which are not always exact repeats. Equal values may be shown once.

In general, ED50 refers to the dose that gives a 50% effect, or the effect in half of the subjects. Low values mean greater potency, high ones weaker potency.

T1 sequence (P25103 whole entry): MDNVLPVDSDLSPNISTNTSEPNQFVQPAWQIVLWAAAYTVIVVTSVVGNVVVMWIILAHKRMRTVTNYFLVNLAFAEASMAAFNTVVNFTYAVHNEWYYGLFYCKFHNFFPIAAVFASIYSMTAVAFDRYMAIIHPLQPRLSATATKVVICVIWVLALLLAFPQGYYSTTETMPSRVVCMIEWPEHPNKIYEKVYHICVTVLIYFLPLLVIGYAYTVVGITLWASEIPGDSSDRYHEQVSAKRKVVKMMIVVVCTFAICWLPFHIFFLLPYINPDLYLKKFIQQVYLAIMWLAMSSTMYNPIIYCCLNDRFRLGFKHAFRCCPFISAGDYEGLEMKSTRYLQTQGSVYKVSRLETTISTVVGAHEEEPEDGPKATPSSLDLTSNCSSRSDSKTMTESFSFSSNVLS

As to `CCN(CC)CC#CCOC(=O)C(O)(c1ccccc1)C1CCCCC1` (stereo not drawn) [oxybutinin], the “adverse effects (primarily dry mouth), share of the patient population” value in series [1] is on record as “approximately 78%”.
Take `CN(C[C@@H](CCN1CCC(N2CCCNC2=O)CC1)c1ccc(Cl)c(Cl)c1)C(=O)c1ccccc1` [the Compound, (S)-N-[2-(3,4-dichlorophenyl)-4-[4-(2-oxoperhydropyrimidin-1-yl)piperidino]butyl]-N-methylbenzamide]: the IC50 in [2] was 187 nM. The Kb in series [3] is 2.4 nM; in series [4], 0.891 nM. The Ki in series [5] was determined as 1.25 nM. In addition, the maximum efficacy entry is “approximately 100%” in series [6] ([…] (1.8 mg/kg) against intravenous BANK (3 nmol/kg)) and “about 80%” in [6] (oral, 5 μmol/kg (2.5 mg/kg)). In addition, the “activity in bladder contraction test” value in [6] (intravenously and orally, 0.2 to 5 μmol/kg body weight) is “active and selective”. Further, the Duration of action result in series [6] (oral 1.2 μmol/kg) is given as “about 6 hr”. Moreover, in series [6] (oral 1.2 μmol/kg), the half-life of action is roughly 3.5 h. In addition, the untoward side-effects entry in series [7] was “has not been found to show any indication of any untoward side-effects”. In series [8] (endothelium intact, phenylephrine-contracted), the “antagonism of relaxation induced by ASMSP” value is on record as “minor antagonism”. Further, the “selectivity, KB against NK1 receptor-mediated response versus NK2 receptor-mediated response” value in [8] (rabbit pulmonary artery) is recorded as 1,096 fold. In addition, the “protection half-life against BANK-induced dyspnea” value in series [9] (2 mg/kg dose, duration of action studies) turned out to be 2.43 h. The ED50 in series [9] (intravenously 30 min prior to challenge) is 0.13 µmol/kg and 0.07 mg/kg; in [9] (oral administration 120 min before challenge), 0.75 µmol/kg and 0.39 mg/kg. The “Maximum efficacy (% protection)” value stood at 95% in series [9] (intravenous, 0.3 μmol/kg) and 100% in [9] (oral dose of 3.0 μmol/kg). In [10] (intravenously at 30 min before BANK), the “rightward shift of the response curves for BANK” value is recorded as roughly 196 fold. In addition, the “rightward shift in the BANK-induced dose-response curve” value in series [10] (oral 120 min before BANK) was roughly 481 fold.
As to `Cc1ccc(O)c([C@H](CCN(C(C)C)C(C)C)c2ccccc2)c1` [tolterodine], the “adverse effects (primarily dry mouth), share of the patient population” value in [1] is roughly 39%.
